structure (smiles),measurement,setting,value
O=C(Nc1ccc(Oc2ccnc3c2CCN3)c(F)c1)c1c[nH]cc(-c2ccc(F)cc2)c1=O,"TRAE Hyperhidrosis, grade 3-4",450 mg QD (n=12),0 n (%)
same,"TRAE Hyperlipidaemia, any grade",450 mg QD (n=12),0 n (%)
same,"TRAE Hyperlipidaemia, grade 3-4",450 mg QD (n=12),0 n (%)
same,"TRAE Hypertension, any grade",450 mg QD (n=12),0 n (%)
same,"TRAE Hypertension, grade 3-4",450 mg QD (n=12),0 n (%)
same,"TRAE Hypoaesthesia oral, any grade",450 mg QD (n=12),2 (16.7) n (%)
same,"TRAE Hypoaesthesia oral, grade 3-4",450 mg QD (n=12),0 n (%)
same,"TRAE Hypocalcaemia, any grade",450 mg QD (n=12),0 n (%)
same,"TRAE Hypocalcaemia, grade 3-4",450 mg QD (n=12),0 n (%)
same,"TRAE Hypotension, any grade",450 mg QD (n=12),0 n (%)
same,"TRAE Hypotension, grade 3-4",450 mg QD (n=12),0 n (%)
same,"TRAE Insomnia, any grade",450 mg QD (n=12),0 n (%)
same,"TRAE Insomnia, grade 3-4",450 mg QD (n=12),0 n (%)
same,"TRAE Leukopenia, any grade",450 mg QD (n=12),1 (8.3) n (%)
same,"TRAE Leukopenia, grade 3-4",450 mg QD (n=12),0 n (%)
same,"TRAE Nausea, any grade",450 mg QD (n=12),0 n (%)
same,"TRAE Nausea, grade 3-4",450 mg QD (n=12),0 n (%)
same,"TRAE Neuritis, any grade",450 mg QD (n=12),0 n (%)
same,"TRAE Neuritis, grade 3-4",450 mg QD (n=12),0 n (%)
same,"TRAE Occult blood, any grade",450 mg QD (n=12),1 (8.3) n (%)
same,"TRAE Occult blood, grade 3-4",450 mg QD (n=12),0 n (%)
same,"TRAE Oedema peripheral, any grade",450 mg QD (n=12),1 (8.3) n (%)
same,"TRAE Oedema peripheral, grade 3-4",450 mg QD (n=12),0 n (%)
same,"TRAE Onycholysis, any grade",450 mg QD (n=12),1 (8.3) n (%)
same,"TRAE Onycholysis, grade 3-4",450 mg QD (n=12),0 n (%)
same,"TRAE Oropharyngeal pain, any grade",450 mg QD (n=12),0 n (%)
same,"TRAE Oropharyngeal pain, grade 3-4",450 mg QD (n=12),0 n (%)
same,"TRAE PPE, any grade",450 mg QD (n=12),3 (25.0) n (%)
same,"TRAE PPE, grade 3-4",450 mg QD (n=12),1 (8.3) n (%)
same,"TRAE Paraesthesia, any grade",450 mg QD (n=12),1 (8.3) n (%)
same,"TRAE Paraesthesia, grade 3-4",450 mg QD (n=12),0 n (%)
same,"TRAE Proteinuria, any grade",450 mg QD (n=12),3 (25.0) n (%)
same,"TRAE Proteinuria, grade 3-4",450 mg QD (n=12),1 (8.3) n (%)
same,"TRAE Pruritus, any grade",450 mg QD (n=12),1 (8.3) n (%)
same,"TRAE Pruritus, grade 3-4",450 mg QD (n=12),0 n (%)
same,"TRAE Rash maculo-papular, any grade",450 mg QD (n=12),0 n (%)
same,"TRAE Rash maculo-papular, grade 3-4",450 mg QD (n=12),0 n (%)
same,"TRAE Sinus tachycardia, any grade",450 mg QD (n=12),0 n (%)
same,"TRAE Sinus tachycardia, grade 3-4",450 mg QD (n=12),0 n (%)
same,"TRAE Skin fissures, any grade",450 mg QD (n=12),0 n (%)
same,"TRAE Skin fissures, grade 3-4",450 mg QD (n=12),0 n (%)
same,"TRAE Supraventricular extrasystoles, any grade",450 mg QD (n=12),0 n (%)
same,"TRAE Supraventricular extrasystoles, grade 3-4",450 mg QD (n=12),0 n (%)
same,"TRAE Thrombocytopenia, any grade",450 mg QD (n=12),0 n (%)
same,"TRAE Thrombocytopenia, grade 3-4",450 mg QD (n=12),0 n (%)
same,"TRAE Upper respiratory tract infection, any grade",450 mg QD (n=12),0 n (%)
same,"TRAE Upper respiratory tract infection, grade 3-4",450 mg QD (n=12),0 n (%)
same,"TRAE Urinary retention, any grade",450 mg QD (n=12),0 n (%)
same,"TRAE Urinary retention, grade 3-4",450 mg QD (n=12),0 n (%)
same,"TRAE Urinary tract infection, any grade",450 mg QD (n=12),1 (8.3) n (%)
same,"TRAE Urinary tract infection, grade 3-4",450 mg QD (n=12),0 n (%)
same,"TRAE Ventricular arrhythmia, any grade",450 mg QD (n=12),1 (8.3) n (%)
same,"TRAE Ventricular arrhythmia, grade 3-4",450 mg QD (n=12),0 n (%)
same,"TRAE Ventricular extrasystoles, any grade",450 mg QD (n=12),0 n (%)
same,"TRAE Ventricular extrasystoles, grade 3-4",450 mg QD (n=12),0 n (%)
same,"TRAE Vomiting, any grade",450 mg QD (n=12),1 (8.3) n (%)
same,"TRAE Vomiting, grade 3-4",450 mg QD (n=12),0 n (%)
same,"TRAE Weight loss, any grade",450 mg QD (n=12),0 n (%)
same,"TRAE Weight loss, grade 3-4",450 mg QD (n=12),0 n (%)
same,"patients with TEAE of pulmonary infection leading to death, deemed unrelated",450 mg QD cohort,One
same,"TRAE Accessory nerve disorder, any grade",600 mg QD (n=10),0 n (%)
same,"TRAE Accessory nerve disorder, grade 3-4",600 mg QD (n=10),0 n (%)
same,"TRAE Activated partial thromboplastin time prolonged, any grade",600 mg QD (n=10),0 n (%)
same,"TRAE Activated partial thromboplastin time prolonged, grade 3-4",600 mg QD (n=10),0 n (%)
same,"TRAE Anaemia, any grade",600 mg QD (n=10),1 (10.0) n (%)
same,"TRAE Anaemia, grade 3-4",600 mg QD (n=10),0 n (%)
same,"TRAE Anaesthesia oral, any grade",600 mg QD (n=10),1 (10.0) n (%)
same,"TRAE Anaesthesia oral, grade 3-4",600 mg QD (n=10),0 n (%)
same,"TRAE Arrhythmia, any grade",600 mg QD (n=10),1 (10.0) n (%)
same,"TRAE Arrhythmia, grade 3-4",600 mg QD (n=10),0 n (%)
same,"TRAE Arthralgia, any grade",600 mg QD (n=10),0 n (%)
same,"TRAE Arthralgia, grade 3-4",600 mg QD (n=10),0 n (%)
same,"TRAE Asthenia, any grade",600 mg QD (n=10),3 (30.0) n (%)
same,"TRAE Asthenia, grade 3-4",600 mg QD (n=10),1 (10.0) n (%)
same,"TRAE Blister, any grade",600 mg QD (n=10),0 n (%)
same,"TRAE Blister, grade 3-4",600 mg QD (n=10),0 n (%)
same,"TRAE Chest discomfort, any grade",600 mg QD (n=10),0 n (%)
same,"TRAE Chest discomfort, grade 3-4",600 mg QD (n=10),0 n (%)
same,"TRAE Chronic kidney disease, any grade",600 mg QD (n=10),0 n (%)
same,"TRAE Chronic kidney disease, grade 3-4",600 mg QD (n=10),0 n (%)
same,"TRAE Constipation, any grade",600 mg QD (n=10),1 (10.0) n (%)
same,"TRAE Constipation, grade 3-4",600 mg QD (n=10),0 n (%)
same,"TRAE Cough, any grade",600 mg QD (n=10),1 (10.0) n (%)
same,"TRAE Cough, grade 3-4",600 mg QD (n=10),0 n (%)

# From PMC10088252
